Test [1] deals with faecal microbiota. Briefly: M-SHIME (M-TripleSHIME) in vitro gastrointestinal model: microbiota and bacterial metabolites. Format: cell-based, human (healthy adult). The conditions noted are these: proximal (PC) and distal (DC) colon reactor; means of three weekly samples. The source says:
The impact of the HMOs on microbiota and bacterial metabolites was investigated in the M-SHIME® (M-TripleSHIME®) in vitro gastrointestinal model (Prodigest). The typical reactor setup of the M-TripleSHIME® consisted of a succession of four reactors simulating the different parts of the human gastrointestinal tract. The first two reactors were of the fill-and-draw principle to simulate different steps in food uptake and digestion, with peristaltic pumps adding a defined amount of SHIME feed (140 mL 3×/day) and pancreatic and bile liquid (60 ml 3×/day), respectively, to the stomach and small intestine compartment and emptying the respective reactors after specified intervals. The last two compartments were continuously stirred reactors with constant volume and pH control. […]
The M-TripleSHIME® was run in four stages: • 1. […] The baseline microbial community composition and activity in the different reactors was determined by analysis of samples and was used as a reference. • 3. […]
Sample of the liquids in each reactor were collected regularly (three times in a week, on day 1, day 3 and day 5) and were analysed for microbial metabolites and the composition of the resident microbial community. In particular, the bifidobacteria composition was analysed using ITS profiling.

The test system of test [2] is clostridia. The conditions noted are these: children with regressive autism; 6-week oral course; cited from earlier work.

Turning to `CC(=O)N[C@H]1[C@H](O[C@H]2[C@@H](O)[C@@H](CO)O[C@@H](O[C@H]3[C@H](O)[C@@H](O)C(O)O[C@@H]3CO)[C@@H]2O)O[C@H](CO)[C@@H](O[C@@H]2O[C@H](CO)[C@H](O)[C@H](O)[C@H]2O)[C@@H]1O` (mixture of isomers) [LNnT, lacto-N-neotetraose], in test [1], the “effect on branched SCFA and ammonia production, compared with 2′-FL (FIG. 1)” value is given as “similar”. With `CN[C@H](CC(C)C)C(=O)N[C@H]1C(=O)N[C@@H](CC(N)=O)C(=O)N[C@H]2C(=O)N[C@H]3C(=O)N[C@H](C(=O)N[C@H](C(=O)O)c4cc(O)cc(O)c4-c4cc3ccc4O)[C@H](O)c3ccc(c(Cl)c3)Oc3cc2cc(c3O[C@@H]2O[C@H](CO)[C@@H](O)[C@H](O)[C@H]2O[C@H]2C[C@](C)(N)[C@H](O)[C@H](C)O2)Oc2ccc(cc2Cl)[C@H]1O` [vancomycin], in test [2], the “children with significant improvement in neurobehavioral symptoms” value was “eight of the ten children” and the gastrointestinal symptoms result is “improvement”.
